From patent publication US12122789B2, “Forms of pyrido[1,2-a]pyrimidin-4-one derivatives, its formulation and its process of making” (Hoffmann-La Roche Inc., priority 2018, dated 2024)
Values belong to the compound of their own block, whether it stands above or below them.

Assays:
[1] = relative thermodynamic stability of crystal forms (equilibration of suspensions); type: physicochemical; details: for thermodynamic stability of the polymorph: in particular between 5° C. to 65° C.
Excerpt: Alternatively, Form A can be obtained upon equilibration of solid 7-(4,7-diazaspiro[2.5]octan-7-yl)-2-(2,8-dimethylimidazo[1,2-b]pyridazin-6-yl)pyrido[1,2-a]pyrimidin-4-one suspended in organic solvents or a mixture thereof for prolonged time. In particular 7-(4,7-diazaspiro[2.5]octan-7-yl)-2-(2,8-dimethylimidazo[1,2-b]pyridazin-6-yl)pyrido[1,2-a]pyrimidin-4-one can be suspended in ethanol, methyl ethyl ketone, ethyl acetate, or dioxane at ambient temperature or at elevated temperature (e.g. 22 to 65° C.) for 2-3 weeks affording 7-(4,7-diazaspiro[2.5]octan-7-yl)-2-(2,8-dimethylimidazo[1,2-b]pyridazin-6-yl)pyrido[1,2-a]pyrimidin-4-one as Form A.
Form D can be obtained by equilibration of solid 7-(4,7-diazaspiro[2.5]octan-7-yl)-2-(2,8-dimethylimidazo[1,2-b]pyridazin-6-yl)pyrido[1,2-a]pyrimidin-4-one suspended in water or water containing organic solvents for prolonged time. 7-(4,7-diazaspiro[2.5]octan-7-yl)-2-(2,8-dimethylimidazo[1,2-b]pyridazin-6-yl)pyrido[1,2-a]pyrimidin-4-one can be suspended in water or mixtures of organic solvent and water, in particular in ethanol/water mixtures. In particular, the mixture can be left in equilibration for 2-3 weeks in water or in ethanol/water 20/80 v/v at 65° C. to afford 7-(4,7-diazaspiro[2.5]octan-7-yl)-2-(2,8-dimethylimidazo[1,2-b]pyridazin-6-yl)pyrido[1,2-a]pyrimidin-4-one as Form D. In particular, the mixture can be left in equilibration for 2-3 weeks in water or in ethanol/water 20/80 v/v to 50/50 v/v to 80/20 v/v at approx. 22° C. to afford 7-(4,7-diazaspiro[2.5]octan-7-yl)-2-(2,8-dimethylimidazo[1,2-b]pyridazin-6-yl)pyrido[1,2-a]pyrimidin-4-one as Form D.

[2] = hygroscopicity (water uptake according to European Pharmacopoeia); type: physicochemical
[3] = chemical stability of the solid form; type: physicochemical; details: compared to Form D
[4] = tested on: exon 7 of SMN1 and/or SMN2; test: inclusion of exon 7 into mRNA transcribed from the SMN1 and/or SMN2 gene; details: increasing expression of SMN protein in a human subject

SMILES: Cc1cn2nc(-c3cc(=O)n4cc(N5CCNC6(CC6)C5)ccc4n3)cc(C)c2n1 [compound of formula (I), 7-(4,7-diazaspiro[2.5]octan-7-yl)-2-(2,8-dimethylimidazo[1,2-b]pyridazin-6-yl)pyrido[1,2-a]pyrimidin-4-one]
- inclusion of exon 7 of SMN1 and/or SMN2 into mRNA [4]: enhance inclusion of exon 7

SMILES: Cc1cn2nc(-c3cc(=O)n4cc(N5CCNC6(CC6)C5)ccc4n3)cc(C)c2n1 [Form D, 7-(4,7-diazaspiro[2.5]octan-7-yl)-2-(2,8-dimethylimidazo[1,2-b]pyridazin-6-yl)pyrido[1,2-a]pyrimidin-4-one]
- stability of the hydrated form ([1]; with sufficiently high water activity): stable hydrated form

Next, values leading:

- thermodynamic stability of the polymorph [1]: thermodynamic stable polymorph
- hygroscopicity [2]: non-hygroscopic to slightly hygroscopic
- water uptake [2]: < 2%
- chemical stability [3]: improved chemical stability
SMILES: Cc1cn2nc(-c3cc(=O)n4cc(N5CCNC6(CC6)C5)ccc4n3)cc(C)c2n1 [Form A, 7-(4,7-diazaspiro[2.5]octan-7-yl)-2-(2,8-dimethylimidazo[1,2-b]pyridazin-6-yl)pyrido[1,2-a]pyrimidin-4-one]

- thermodynamic stability of the polymorph [1]: metastable polymorph
SMILES: Cc1cn2nc(-c3cc(=O)n4cc(N5CCNC6(CC6)C5)ccc4n3)cc(C)c2n1 [Form B, 7-(4,7-diazaspiro[2.5]octan-7-yl)-2-(2,8-dimethylimidazo[1,2-b]pyridazin-6-yl)pyrido[1,2-a]pyrimidin-4-one]

- thermodynamic stability of the polymorph [1]: metastable polymorph
SMILES: Cc1cn2nc(-c3cc(=O)n4cc(N5CCNC6(CC6)C5)ccc4n3)cc(C)c2n1 [Form G, 7-(4,7-diazaspiro[2.5]octan-7-yl)-2-(2,8-dimethylimidazo[1,2-b]pyridazin-6-yl)pyrido[1,2-a]pyrimidin-4-one]
